Laboratory results from article PMC5877410 (Journal of medicinal chemistry, 2017).
Where “and” joins values, the source holds several entries; their conditions need not be identical. Equal values may be shown once. Read-outs that look alike come from different tables or passages of the source.

What was measured:
Caco-2 monolayers = conditions: cited from earlier work
NAP1 spores = test: Phase-contrast microscope spore count assay; assay type: cell-based, Clostridium difficile
Caco-2 cell monolayer [1] = test: Caco-2 cell monolayer bidirectional permeability assay; conditions: 10 μM
Caco-2 cell monolayer [2] = system: Caco-2 cell monolayer
NAP1 C. difficile spores = test: Optical density; assay type: cell-based, Clostridium difficile
[3] = biological target: C. difficile spore germination; assay type: cell-based, Clostridium difficile; conditions: inhibitor evaluated at 0.2 mM, varying TCA; average of three experiments ± SEM
ATCC strain 630 = conditions: murine infection model, strain ATCC 630; cited from earlier work
[4] = 10 μM compound, 2000 μM TCA, after 20 min, mean ± SD, N = 3

C[C@H](CCC(=O)NCCS(=O)(=O)O)[C@H]1CC[C@H]2[C@@H]3[C@H](O)C[C@@H]4C[C@H](O)CC[C@]4(C)[C@H]3C[C@H](O)[C@]12C [TCA, taurocholic acid]
transport ratio (Caco-2 monolayers): greater than 10

COC(=O)CC[C@@H](C)[C@H]1CC[C@H]2[C@@H]3[C@H](O)C[C@@H]4C[C@H](O)CC[C@]4(C)[C@H]3CC[C@]12C [2a, methyl (R)-4-((3R,5S,7R,8R,9S,10S,13R,14S,17R)-3,7-dihydroxy-10,13-dimethylhexadecahydro-1H-cyclopenta[a]phenanthren-17-yl)pentanoate, reference compound]
Percent Spore Germination t20 (NAP1 spores; [4]): 71 ± 1%

CO[C@@H]1CC[C@@]2(C)[C@@H](C1)C[C@H](OC)[C@@H]1[C@@H]2CC[C@]2(C)[C@@H]([C@H](C)CCC(=O)O)CC[C@@H]12 [6b, (R)-4-((3R,5S,7S,8R,9S,10S,13R,14S,17R)-3,7-Dimethoxy-10,13-dimethylhexadecahydro-1H-cyclopenta[a]-phenanthren-17-yl)pentanoic Acid]
Percent Spore Germination t20 (NAP1 spores; [4]): 71 ± 2%

sodium 5-((R)-3-((3R,5R,7R,8R,9S,10S,13R,14S,17R)-7-hydroxy-3-methoxy-10,13-dimethyl-hexadecahydro-1H-cyclopenta[a]phenanthren-17-yl)butyl)-tetrazol-1-ide [37a]
fold greater permeability in the A–B direction than C7-sulfated analogue 38a (Caco-2 cell monolayer [1]): over 25 times | mean permeability A–B (Caco-2 cell monolayer [2]): 10.7 10^−6 cm/s | mean permeability B–A (Caco-2 cell monolayer [2]): 1.9 10^−6 cm/s | Concentration Required for Complete Inhibition (NAP1 C. difficile spores): 5 µM | Ki [3]: 17.9 ± 4.6 µM | Percent Spore Germination t0 (NAP1 spores): 20% and 16 ± 4% | Percent Spore Germination t20 (NAP1 spores): 25%

CO[C@@H]1CC[C@@]2(C)[C@@H](C1)C[C@H](OS(=O)(=O)[O-])[C@@H]1[C@@H]2CC[C@]2(C)[C@@H]([C@H](C)CCC(=O)N3CCCC3)CC[C@@H]12.[Na+] [21b, Sodium (3R,5S,7S,8R,9S,10S,13R,14S,17R)-3-Methoxy-10,13-dimethyl-17-((R)-5-oxo-5-(pyrrolidin-1-yl)pentan-2-yl)-hexadecahydro-1H-cyclopenta[a]phenanthren-7-yl Sulfate]
Percent Spore Germination t20 (NAP1 spores; [4]): 30 ± 6% | Percent Spore Germination t0 (NAP1 spores; 10 μM compound, 2000 μM TCA, time 0, mean ± SD, N = 3): 18 ± 2% | Inhibition of spore germination at 50 μM (NAP1 spores; 50 μM compound, 2000 μM TCA (Table S1)): complete inhibition of spore germination

C[C@H](CCC(=O)Nc1cccc(S(=O)(=O)O)c1)[C@H]1CC[C@H]2[C@@H]3[C@H](O)C[C@@H]4C[C@H](O)CC[C@]4(C)[C@H]3C[C@H](O)[C@]12C [compound 3, reference compound]
Effect on CDI symptoms (ATCC strain 630): eradicated CDI symptoms | Percent Spore Germination t20 (NAP1 spores; [4]): 74 ± 2%

sodium 5-((R)-3-((3R,5S,7R,8R,9S,10S,13R,14S,17R)-3-methoxy-10,13-dimethyl-7-(sulfonatooxy)hexadecahydro-1H-cyclopenta[a]phenanthren-17-yl)-butyl)tetrazol-1-ide [38a]
mean permeability A–B (Caco-2 cell monolayer [2]): 0.4 10^−6 cm/s | mean permeability B–A (Caco-2 cell monolayer [2]): 0.4 10^−6 cm/s | Percent Spore Germination t0 (NAP1 spores): 20 ± 11% | Percent Spore Germination t20 (NAP1 spores): 48 ± 11%

sodium 5-((R)-3-((3R,5S,7R,8R,9S,10S,13R,14S,17R)-3,7-dihydroxy-10,13-dimethylhexadecahydro-1H-cyclopenta[a]phenanthren-17-yl)butyl)tetrazol-1-ide [35a]
Concentration Required for Complete Inhibition (NAP1 C. difficile spores): 10 µM | Percent Spore Germination Relative to control (NAP1 spores): 12% and 12 ± 6% | Percent Spore Germination t0 (NAP1 spores): 15 ± 6% | Percent Spore Germination t20 (NAP1 spores): 22 ± 6%
